Assay results: paper PMC11219871, “Epigenetic-based differentiation therapy for Acute Myeloid Leukemia” (Nature Communications, 2024)
Like-named read-outs stand apart in the source and are kept apart here.

What was measured:
DNMT1 = DNMT1 (Homo sapiens, UniProt P26358); experiment: Epigenetic panel (BPS Bioscience); DNMT1 TR-FRET IC50; format: biochemical
Procedure: DNMT1 and G9a IC50 values were measured using time-resolved fluorescence energy transfer assays, as described previously[18],[25],[26].
Binding experiments were performed in duplicate at a concentration of 10 μM.

HDAC5 = target: T1, HDAC5 (Homo sapiens, UniProt Q9UQL6); experiment: HDAC assay (Eurofins); format: biochemical
T1 construct: purchased Eurofins (contracted assay service)

[1] = test system: H3Ac and H3K27me3 levels in HL-60, ML-2, MV4-11 and MOLM-13 cell lines; experiment: Western blot of histone marks; format: cell-based, human; conditions: HL-60, 270 nM CM-444 or 300 nM CM-1758, 48 h
Procedure: Histone extraction was performed with a Histone extraction Kit (Abcam, Cambridge, UK) following the manufacturer’s instructions. The histone concentration in the extract was measured using the dye-binding assay of Bradford. A 10 µg amount of histone was separated on 15% sodium dodecyl sulfate-polyacrylamide gel electrophoresis and transferred to a nitrocellulose membrane. The membrane, after being blocked with Tropix I-block blocking reagent (Cat No AI300, Tropix) in PBS with 0.1% Tween 20 and 0.02 NaN3 was incubated with the primary antibody against Acetyl H3 (rabbit polyclonal antibody, Cat No 06-599, Millipore) diluted 1:50,000 o/n at 4 °C or against H3K27 me3 (mouse monoclonal antibody to histone H3 trimethyl K27, Cat No ab6002, Abcam) diluted 1:2000 in bovine serum albumin o/n at 4 °C and then with alkaline phosphatase-conjugated secondary antibodies. […] Total H3 was used as a loading control (diluted 1:50,000 o/n at 4 °C or for 1 h at room temperature) (Anti-Histone H3, CT, pan, rabbit polyclonal, Cat No 07-690, Millipore). Images have been cropped for presentation.

hERG potassium channels = target: T2, hERG potassium channels (Homo sapiens, UniProt Q12809); experiment: hERG blockade assay (whole-cell patch clamp, CHO cells); format: cell-based; conditions: for IC50: read-out: hERG binding: IC50
T2 construct: host or cells: CHO cells
Procedure: This study was conducted at Wuxi (http://www.wuxi.com/), using CHO cells with stable expression of hERG potassium channels (Sophion Biosciences, Ballerup, Denmark). Cells were cultured (F12 medium, supplemented with 10% FBS, 1% Geneticin® selective antibiotic, 89 μg/mL hygromycin B) in a humidified and air-controlled (5% CO2) incubator at 37 °C ± 2 °C. Test compounds were diluted at different concentrations (0.3 μM–30μM), with a final DMSO concentration in an extracellular solution of <0.3%. The external solution consisted of 2 mM CaCl2, 1 mM MgCl2, 4 mM KCl, 145 mM NaCl, 10 mM glucose and 10 mM HEPES at pH 7.3–7.4. The internal solution consisted of 5.37 mM CaCl2, 1.75 mM MgCl2, 120 mM KCl, 10 mM HEPES, 5 mM EGTA and 4 mM Na2ATP at pH 7.2–7.3. The assay was performed at room temperature using the whole-cell patch clamp techniques controlled with Patchmaster Pro software. For quality control, minimum seal membrane resistance was set at 500 MOhms and the minimum/maximum specific hERG current (pre-compound) was 400 pA/3000 pA. A 100-nM amount of cisapride was used as the positive control to evaluate the reliability of the test system. Results are the average of two biological replicates.

HDAC6 = target: T3, HDAC6 (Homo sapiens, UniProt Q9UBN7); experiment: HDAC enzymatic assay, fluorescence-labeled substrate; format: biochemical; conditions: for inhibition at 10 µM: source data of Fig. 1B; for IC50: read-out: IC50
T3 sequence (Q9UBN7 1-1215): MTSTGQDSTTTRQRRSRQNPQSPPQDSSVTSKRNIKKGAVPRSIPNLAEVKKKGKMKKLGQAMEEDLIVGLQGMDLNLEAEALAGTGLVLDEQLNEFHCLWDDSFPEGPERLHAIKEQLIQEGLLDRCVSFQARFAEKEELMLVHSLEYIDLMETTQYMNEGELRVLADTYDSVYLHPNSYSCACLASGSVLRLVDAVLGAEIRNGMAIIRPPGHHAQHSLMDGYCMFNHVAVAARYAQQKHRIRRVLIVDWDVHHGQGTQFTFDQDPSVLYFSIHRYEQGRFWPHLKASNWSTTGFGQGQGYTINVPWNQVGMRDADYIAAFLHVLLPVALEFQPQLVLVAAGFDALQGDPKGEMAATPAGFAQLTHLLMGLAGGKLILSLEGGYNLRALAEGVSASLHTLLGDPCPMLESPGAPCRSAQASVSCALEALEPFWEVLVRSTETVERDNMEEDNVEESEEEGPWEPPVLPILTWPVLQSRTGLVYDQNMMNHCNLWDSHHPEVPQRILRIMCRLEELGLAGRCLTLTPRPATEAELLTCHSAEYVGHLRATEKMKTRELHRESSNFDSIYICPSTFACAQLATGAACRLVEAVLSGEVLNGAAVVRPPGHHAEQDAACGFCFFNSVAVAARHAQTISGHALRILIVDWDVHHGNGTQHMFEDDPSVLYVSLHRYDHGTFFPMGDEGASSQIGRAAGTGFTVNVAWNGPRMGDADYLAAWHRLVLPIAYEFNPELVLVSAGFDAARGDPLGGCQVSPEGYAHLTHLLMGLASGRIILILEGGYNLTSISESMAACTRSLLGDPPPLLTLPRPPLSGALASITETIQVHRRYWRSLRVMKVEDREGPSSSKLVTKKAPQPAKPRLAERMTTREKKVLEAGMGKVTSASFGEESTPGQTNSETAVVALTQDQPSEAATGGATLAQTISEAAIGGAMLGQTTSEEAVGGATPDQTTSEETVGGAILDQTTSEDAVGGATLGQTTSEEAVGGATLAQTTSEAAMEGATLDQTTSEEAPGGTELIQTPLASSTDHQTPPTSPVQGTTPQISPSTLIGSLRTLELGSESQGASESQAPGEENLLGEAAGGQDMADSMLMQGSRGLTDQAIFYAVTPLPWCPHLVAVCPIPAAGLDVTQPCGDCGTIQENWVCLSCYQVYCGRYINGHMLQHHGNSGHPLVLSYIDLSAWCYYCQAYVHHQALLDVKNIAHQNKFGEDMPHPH

Chain of DNMT1 (P26358 whole entry): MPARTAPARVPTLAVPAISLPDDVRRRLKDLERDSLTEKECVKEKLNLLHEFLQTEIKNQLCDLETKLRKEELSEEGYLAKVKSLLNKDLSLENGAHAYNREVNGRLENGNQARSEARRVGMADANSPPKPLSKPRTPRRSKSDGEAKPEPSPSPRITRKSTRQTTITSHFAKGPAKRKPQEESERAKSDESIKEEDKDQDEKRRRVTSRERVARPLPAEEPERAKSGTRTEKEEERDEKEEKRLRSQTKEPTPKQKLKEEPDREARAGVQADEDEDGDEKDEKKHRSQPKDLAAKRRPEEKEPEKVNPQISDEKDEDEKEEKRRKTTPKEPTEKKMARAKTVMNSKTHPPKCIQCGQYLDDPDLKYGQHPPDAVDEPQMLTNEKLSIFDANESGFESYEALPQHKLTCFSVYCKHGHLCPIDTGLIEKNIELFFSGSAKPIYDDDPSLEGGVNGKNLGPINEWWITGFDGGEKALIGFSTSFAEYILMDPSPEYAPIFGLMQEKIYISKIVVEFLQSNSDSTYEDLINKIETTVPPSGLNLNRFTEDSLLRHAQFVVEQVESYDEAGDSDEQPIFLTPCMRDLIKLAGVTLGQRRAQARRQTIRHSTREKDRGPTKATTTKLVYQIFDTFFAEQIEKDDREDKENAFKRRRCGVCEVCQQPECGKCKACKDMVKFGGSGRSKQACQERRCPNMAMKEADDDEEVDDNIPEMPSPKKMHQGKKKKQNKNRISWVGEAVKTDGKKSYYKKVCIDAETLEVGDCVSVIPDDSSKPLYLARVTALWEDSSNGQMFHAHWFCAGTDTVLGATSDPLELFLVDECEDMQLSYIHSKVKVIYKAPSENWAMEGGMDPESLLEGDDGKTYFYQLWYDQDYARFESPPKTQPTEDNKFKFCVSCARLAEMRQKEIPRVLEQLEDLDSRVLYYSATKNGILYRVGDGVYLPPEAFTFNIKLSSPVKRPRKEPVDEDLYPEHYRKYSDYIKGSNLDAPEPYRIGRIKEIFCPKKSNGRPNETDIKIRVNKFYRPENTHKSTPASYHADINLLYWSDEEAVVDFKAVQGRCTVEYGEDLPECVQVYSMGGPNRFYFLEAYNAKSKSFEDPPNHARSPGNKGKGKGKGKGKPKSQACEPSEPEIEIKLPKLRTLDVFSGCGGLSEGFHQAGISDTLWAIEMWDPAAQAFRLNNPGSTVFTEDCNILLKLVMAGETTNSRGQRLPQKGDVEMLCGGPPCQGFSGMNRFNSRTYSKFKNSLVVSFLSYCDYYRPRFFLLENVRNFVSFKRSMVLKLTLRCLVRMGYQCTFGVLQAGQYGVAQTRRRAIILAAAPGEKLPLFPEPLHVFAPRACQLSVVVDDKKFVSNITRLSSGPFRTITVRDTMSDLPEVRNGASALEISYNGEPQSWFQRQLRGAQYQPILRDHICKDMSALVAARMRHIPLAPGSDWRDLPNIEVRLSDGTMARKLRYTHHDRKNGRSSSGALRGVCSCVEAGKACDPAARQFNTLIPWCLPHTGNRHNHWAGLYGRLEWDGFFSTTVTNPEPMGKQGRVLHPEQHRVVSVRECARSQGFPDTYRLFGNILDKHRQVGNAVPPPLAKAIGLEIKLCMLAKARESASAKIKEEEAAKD
T2 sequence (Q12809 whole entry): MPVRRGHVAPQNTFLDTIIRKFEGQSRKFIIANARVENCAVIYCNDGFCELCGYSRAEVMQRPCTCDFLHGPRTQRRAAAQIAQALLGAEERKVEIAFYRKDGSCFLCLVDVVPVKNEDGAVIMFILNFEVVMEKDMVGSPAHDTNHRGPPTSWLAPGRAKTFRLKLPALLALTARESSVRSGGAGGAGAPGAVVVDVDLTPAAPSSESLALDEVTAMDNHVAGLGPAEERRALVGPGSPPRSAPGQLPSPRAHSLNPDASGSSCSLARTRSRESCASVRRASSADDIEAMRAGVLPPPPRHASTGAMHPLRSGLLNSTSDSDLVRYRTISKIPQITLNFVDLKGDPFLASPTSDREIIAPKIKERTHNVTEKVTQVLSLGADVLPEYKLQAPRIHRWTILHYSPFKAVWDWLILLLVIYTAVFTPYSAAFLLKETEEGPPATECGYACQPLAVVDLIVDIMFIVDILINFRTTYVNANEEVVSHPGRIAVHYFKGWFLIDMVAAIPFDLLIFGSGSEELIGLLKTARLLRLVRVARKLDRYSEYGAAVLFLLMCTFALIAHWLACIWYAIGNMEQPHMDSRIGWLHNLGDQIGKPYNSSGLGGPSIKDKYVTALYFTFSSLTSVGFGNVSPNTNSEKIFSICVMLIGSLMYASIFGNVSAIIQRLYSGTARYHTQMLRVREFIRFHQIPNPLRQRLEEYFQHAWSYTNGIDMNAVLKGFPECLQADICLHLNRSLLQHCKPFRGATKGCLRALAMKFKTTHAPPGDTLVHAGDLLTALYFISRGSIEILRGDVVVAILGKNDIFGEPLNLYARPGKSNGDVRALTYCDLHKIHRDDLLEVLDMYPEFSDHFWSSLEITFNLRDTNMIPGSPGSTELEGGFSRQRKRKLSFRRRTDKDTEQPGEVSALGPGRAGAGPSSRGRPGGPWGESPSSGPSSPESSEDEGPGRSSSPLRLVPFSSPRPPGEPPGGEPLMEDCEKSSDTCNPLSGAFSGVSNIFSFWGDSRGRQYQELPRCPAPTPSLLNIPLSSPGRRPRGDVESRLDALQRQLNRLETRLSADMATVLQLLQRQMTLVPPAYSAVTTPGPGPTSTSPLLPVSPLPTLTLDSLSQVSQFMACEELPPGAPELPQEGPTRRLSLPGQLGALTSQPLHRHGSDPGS
T1 sequence (Q9UQL6 whole entry): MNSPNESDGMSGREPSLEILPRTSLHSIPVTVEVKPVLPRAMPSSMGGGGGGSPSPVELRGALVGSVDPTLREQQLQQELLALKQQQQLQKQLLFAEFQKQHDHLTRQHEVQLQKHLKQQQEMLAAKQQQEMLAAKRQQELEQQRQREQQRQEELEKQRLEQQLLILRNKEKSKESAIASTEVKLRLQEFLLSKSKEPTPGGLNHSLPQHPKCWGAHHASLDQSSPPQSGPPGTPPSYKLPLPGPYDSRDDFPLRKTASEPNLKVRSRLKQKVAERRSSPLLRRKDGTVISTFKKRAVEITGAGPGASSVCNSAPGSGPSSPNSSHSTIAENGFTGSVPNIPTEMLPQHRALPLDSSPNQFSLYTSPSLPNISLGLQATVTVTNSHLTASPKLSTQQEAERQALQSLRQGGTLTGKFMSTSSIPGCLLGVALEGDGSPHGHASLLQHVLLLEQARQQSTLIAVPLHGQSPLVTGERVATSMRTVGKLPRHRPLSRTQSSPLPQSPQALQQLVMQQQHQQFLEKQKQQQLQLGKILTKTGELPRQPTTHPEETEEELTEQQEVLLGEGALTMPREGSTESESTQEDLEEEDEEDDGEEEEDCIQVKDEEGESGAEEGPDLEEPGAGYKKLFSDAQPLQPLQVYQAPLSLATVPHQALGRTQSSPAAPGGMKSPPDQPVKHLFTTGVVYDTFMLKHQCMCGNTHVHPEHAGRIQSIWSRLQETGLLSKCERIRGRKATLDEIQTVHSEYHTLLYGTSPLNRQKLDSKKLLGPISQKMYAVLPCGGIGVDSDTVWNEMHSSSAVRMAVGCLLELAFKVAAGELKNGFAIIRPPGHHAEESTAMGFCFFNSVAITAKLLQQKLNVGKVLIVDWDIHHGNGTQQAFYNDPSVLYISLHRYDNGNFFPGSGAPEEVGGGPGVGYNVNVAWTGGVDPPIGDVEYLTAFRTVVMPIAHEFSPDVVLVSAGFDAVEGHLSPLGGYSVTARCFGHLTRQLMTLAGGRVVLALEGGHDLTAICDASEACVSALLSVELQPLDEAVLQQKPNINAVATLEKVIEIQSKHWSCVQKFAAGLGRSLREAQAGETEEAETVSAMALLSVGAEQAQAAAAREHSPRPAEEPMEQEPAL

SMILES	inhibition at 10 µM (DNMT1)	IC50 (DNMT1; as printed in Fig. 1B, read-out: IC50)	IC50 (DNMT1; read-out: DNMT1 IC50)	IC50 (HDAC5)	inhibition at 10 µM (HDAC5)	H3Ac level (western blot) [1]	H3K27me3 level (western blot) [1]	hERG hill slope (hERG potassium channels)	IC50 (hERG potassium channels)	inhibition at 10 µM (HDAC6)	IC50 (HDAC6)
COc1cc2nc(-c3ccc(C)o3)cc(NCC3CCN(c4ncc(C(=O)NO)cn4)CC3)c2cc1OC [CM-444, 2-[4-[[[6,7-dimethoxy-2-(5-methyl-2-furyl)-4-quinolyl]amino]methyl]-1-piperidyl]pyrimidine-5-carbohydroxamic acid]	96%	2200 nM	2160 nM	59 nM	97%	significant increase in H3Ac	no changes in H3K27me3	1.33	16800 nM	90%	531 nM
COc1cc2nc(-c3cc(C)oc3C)cc(NCC3CCN(c4ncc(C(=O)NO)cn4)CC3)c2cc1OC [CM-1758, 2-[4-[[[2-(2,5-dimethyl-3-furyl)-6,7-dimethoxy-4-quinolyl]amino]methyl] -1-piperidyl]pyrimidine-5-carbohydroxamic acid]	66%	–	22600 nM	270 nM	98%	significant increase in H3Ac	no changes in H3K27me3	0.99	4890 nM	90%	257 nM
